Measurements from patent US11340219B2, “Anti-pY1235-MET immunological binding reagent” (THE UNITED STATES OF AMERICA AS REPRESENTED BY THE …, priority 2016, dated 2022).
Entries after “also recorded” stand apart in the source; their conditions may differ. Read-outs that look alike come from different tables or passages of the source.

Experiments:
GTL-16 tumor xenografts = test: GTL-16 xenograft tumor growth; assay type: in vivo, mice
Method: Animal models and drug administration. Athymic nude mice (nu/nu NCr; Animal Production Program, NCI-Frederick) were implanted with the human cancer cell lines U87 (glioblastoma); A549 (lung carcinoma); MDA-MB-231 (breast carcinoma); HT-29 (colon carcinoma); or with GTL-16, MKN45, or SNU5 (all gastric carcinomas, MET-amplified) as described (17). […] Sorafenib was dissolved in DMSO for in vitro studies. […] Tivantinib was administered orally in a PEG 400:20% vitamin E tocopheryl polyethylene glycol succinate solution (60:40) vehicle. Fit-for-purpose MET inhibitor studies.

MET = MET (Homo sapiens, UniProt P08581)
Method: Fit-for-purpose MET inhibitor studies. […] Extracts of core needle biopsies collected 4 h after tivantinib administration on Day 8 were analyzed for MET, pMET, and hypoxia inducible factor 1, alpha subunit (HIF-1α) (21).
MET immunoassay procedure. The full-length MET immunoassay measures the total levels of full-length MET in tumor tissue samples, irrespective of phosphorylation status. […] Wells were blocked for 2 h with 1×PBS, 0.5% mannitol, 0.2% glycine, and 0.2% BSA, and strips were assembled on 96-well plate frames, freeze-dried, and sealed in desiccated pouches (6-month stability). For the immunoassay, 100 μL each of purified rMET calibrator, controls, and tumor lysates (at protein concentrations of 10-50 μg/mL) prepared in assay buffer (1×PBS/Casein [BioFx] containing PhosSTOP, protease inhibitors and 0.1% Triton X-100 [Roche]) were added to the AF276-coated wells. The rMET assay calibrator was prepared for the dynamic range of the assay. Plates were incubated at ambient temperature (25° C.±3° C.) on an orbital shaker (600 rpm) 1 h to capture MET. After three washes with assay buffer, 100 μL/well 200 ng/mL biotin-conjugated mouse monoclonal MET antibody (clone L41G3) was added to the plates and incubated 1 h at 25° C.±3° C., followed by a second wash and the addition of 100 μL/well 200 ng/mL streptavidin poly-HRP conjugate (Pierce). After 30-min incubation with the HRP-conjugate, plates were washed 4 times and 100 μL SuperSignal ELISA Pico Chemiluminescent Substrate (pierce) was added to each well. Plates were read within 10 min using an Infinite 200 Microplate ELISA reader (Tecan, USA). MET immunoassay calibration curves were analyzed on GraphPad Prism and unknown values were calculated using 4-parameter curve fitting.
Three different pMET immunoassays were developed for the PD studies: pY1234/1235-, pY1235-, and pY1356-MET (Supplemental Material). […] The pMET assay calibrators were prepared for the dynamic range of each assay. Assay control samples were prepared by combining GTL-16, SNU5, A549, MKN45, or U87 xenograft tumor lysates to achieve low, medium, and high MET concentrations at 10 to 50 μg/mL total protein concentrations.

HIF-1α = HIF-1α immunoassay in SNU5 xenograft extracts; assay type: in vivo; settings: SNU5, day 8, pazopanib 100 mg/kg daily, p<0.05
[1] = test system: pY1235-MET in MET-expressing cell lines (GTL-16, HT29, A549); test: pY1235-MET immunofluorescence staining of treated cancer cell lines; assay type: cell-based, human; settings: 100 nM drug, clone 23111 staining, FIG. 1B
Method: MET immunofluorescence analysis. […] Cells were fixed in 10% neutral-buffered formalin (Sigma-Aldrich) for 24 h, pelleted, and then embedded in paraffin. After 5-μm sectioning, antigen retrieval with Bond Epitope Retrieval Solution 2 (at 100° C. for 10 min) and immunofluorescent staining were performed on the Bond-max Autostainer (Leica Biosystems). For antigen detection, 10 μ/mL primary antibody (anti-pY1235-MET, clone 23111) was followed by 10 μg/mL goat anti-rabbit AF488 (Life Technologies). Immunofluorescence microscopy was performed on core needle biopsies of a resected a human HPRC tumor stained with 5 μg/mL anti-full-length MET (clone Met4) followed by 10 μg/mL anti-mouse AF660 (Life Technologies). Image acquisition and analysis were performed on a wide-field fluorescent, confocal microscope (Nikon 90i, Andor Camera, NIS Elements Software).

pY1235-MET = pY1235-MET (Homo sapiens, UniProt P08581); test: BIAlite-Biosensor interaction analysis of antibody binding affinity; settings: range of protein concentrations, details not shown
Method: To facilitate bulk production, rabbit monoclonal antibodies (clones 23111 and 7334) were converted into recombinant proteins through transient expression in HEK293 cells (8). The cDNA from rabbit hybridomas was used to clone IgG heavy and light chains in a 7.7 kB ampicillin-resistant mammalian expression vector co-expressing EB oriP, zeocin selection, and CMV promoter for transient expression in HEK293 cells. For mammalian expression plasmids, DNA was prepared using the GenElute XP Maxiprep kit (Sigma-Aldrich) and verified by agarose gel electrophoresis. Recombinant protein production provided typical yields of 100-300 mg/L in suspension cultures. Specificity of antibodies, determined by Western blot using xenograft lysate and rMET protein, was unaffected by this process. To further characterize these MET antibodies, their binding affinities were measured over a range of protein concentrations using interaction analysis performed with a BIAlite-Biosensor (Pharmacia) as previously described (9).

pY1234-MET = test: Western blot specificity analysis; assay type: binding; settings: FIG. 7A
Method: (§1) Rabbits were selected for splenectomy and B-cells were subsequently fused with the rabbit cell line 240E-W2 to produce hybridomas based on high antiserum binding to phosphorylated synthetic peptide and lower or undetectable binding to the nonphosphorylated synthetic peptide of identical sequence. Specificity of the pY1235-MET antibody (clone 23111) was tested by preincubating the antibody with synthetic MET peptides phosphorylated at Y1235 (99% phosphorylated at Y1235, nonphosphorylated at Y1234, 1% other impurities) or at Y1234, or preincubating with recombinant RON (cytoplasmic domain, Millipore) (FIG. 7A). Only preincubation with the pY1235 peptide blocked binding of the antibody to the MET protein band. Specificity of clone 23111 was further confirmed by Western blotting of a GST-fusion with MET amino acids 912-1390 harboring a Y1235D-specific mutation (N-terminal GST-Y1235D-MET peptide, 76 kDa; CarnaBio USA, Inc) and of a recombinant cytoplasmic domain of RON (FIG. 7B). […] According to the manufacturer's specifications, anti-pY1234/1235-MET (clone D26) can also bind to tyrosine phosphorylated SRC proteins by Western blot.
(§2) Protein concentrations were determined by bicinchoninic acid assay (BCA assay), and cell lysate loads between 25 and 50 μg per well were run on 4% to 20% precast polyacrylamide gradient gels (Bio-Rad Laboratories) for SDS-PAGE at 100 V for up to 2 hours. Proteins separated by gel electrophoresis were transferred to a nitrocellulose membrane using the Mini-PROTEAN Tetra electrophoresis system (Bio-Rad) at 90 V for 4 hours at 2° C. to 8° C. Membranes were blocked in Odyssey blocking buffer (LI-COR) for 1 hour at 25° C.±3° C. Blots were probed first with 1 μg/mL mouse, rabbit, or goat anti-MET monoclonal antibody in Odyssey blocking buffer overnight at 2° C. to 8° C. with slow orbital shaking and then with an IR dye-labeled secondary antibody against mouse, rabbit, or goat antibody (1:5000 in Odyssey blocking buffer; LI-COR) for 1 hour at 25° C.±3° C. with orbital shaking. Blots were visualized using the Odyssey Infrared imager (LI-COR). […]

[2] = target: T1, recombinant Y1235D-MET peptide (N-terminal GST-Y1235D-MET) (Homo sapiens, UniProt P08581, Y1235D); test: Western blot specificity analysis; assay type: binding; settings: FIG. 7B
T1 construct: a GST-fusion with MET amino acids 912-1390 harboring a Y1235D-specific mutation; purchased CarnaBio USA, Inc
Method: as §1, §2

[3] = target: T2, recombinant cytoplasmic domain of RON (Homo sapiens, UniProt Q04912); test: Western blot specificity analysis; assay type: binding; settings: FIGS. 7A and 7B
T2 construct: preincubating with recombinant RON (cytoplasmic domain, Millipore); purchased Millipore
T2 sequence (Q04912 979-1400 limits assumed): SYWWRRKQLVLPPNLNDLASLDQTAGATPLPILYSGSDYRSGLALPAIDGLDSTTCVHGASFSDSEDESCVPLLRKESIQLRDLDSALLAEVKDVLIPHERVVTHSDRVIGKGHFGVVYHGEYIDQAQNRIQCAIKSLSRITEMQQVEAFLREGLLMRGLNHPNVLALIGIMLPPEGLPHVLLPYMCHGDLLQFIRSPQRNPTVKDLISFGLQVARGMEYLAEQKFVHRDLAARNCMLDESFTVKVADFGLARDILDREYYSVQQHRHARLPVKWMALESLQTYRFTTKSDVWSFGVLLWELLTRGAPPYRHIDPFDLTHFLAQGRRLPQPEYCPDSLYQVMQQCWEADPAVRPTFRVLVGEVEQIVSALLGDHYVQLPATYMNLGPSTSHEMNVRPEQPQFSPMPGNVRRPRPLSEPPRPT
Method: as §1, §2

Molecule: C[C@@H](Oc1cc(-c2cnn(C3CCNCC3)c2)cnc1N)c1c(Cl)ccc(F)c1Cl [PF02341066, crizotinib]
- tumor growth (GTL-16 tumor xenografts; daily oral 25 mg/kg, by the seventh day of treatment): achieved stasis

Molecule: Cc1[nH]c(/C=C2\C(=O)Nc3ccc(S(=O)(=O)Cc4c(Cl)cccc4Cl)cc32)c(C)c1C(=O)N1CCC[C@@H]1CN1CCCC1 [PHA665752]
- tumor growth (GTL-16 tumor xenografts; 25 and 50 mg/kg/day IP, after 8-10 days of treatment): achieved tumor stasis
- reduction in pY1235-MET:MET ratio (MET; GTL-16, 25 mg/kg IP, 4 h after first dose): 62%
- reduction in pY1235-MET:MET ratio (MET; GTL-16, 50 mg/kg IP, 4 h after first dose): 80%
- reduction in pY1235-MET:MET ratio (MET; GTL-16, 4 h after the first dose (discussion summary)): 60-80%
- pY1356-MET:MET ratio (MET; GTL-16, PHA665752 after first dose, recovered to normal within 20 h): declined after the first dose

Molecule: Cc1ccc(Nc2nccc(N(C)c3ccc4c(C)n(C)nc4c3)n2)cc1S(N)(=O)=O [pazopanib]
- increase in HIF-1α levels (HIF-1α): 46%

Molecule: CNC(=O)c1cc(Oc2ccc(NC(=O)Nc3ccc(Cl)c(C(F)(F)F)c3)cc2)ccn1 [sorafenib]
- sensitivity of pY1235-MET plasma membrane staining to drug [1]: not

B1: clone 23111: rabbit monoclonal antibody specific to pY1235-MET; VH SEQ ID NO:1, VL SEQ ID NO:2 (antibody, V domains shown)
VH: QSVEESGGRLVTPGTPLTLTCTVSGFSLSNYAMGWFRQAPGKGLEWIGIISRSGALWYANWANGRFTISKTSTTVDLKITSPTPEDTATYFCARTNYYDGYGGVDAVLTRFDFWGQGTLVTVSSG
VL: ADVVMTQTPSSVEAAVGGTVTIKCQASQSIGGGLSWYQQKAGQPPKLLIYGASTLESGVPSRFKGSGSGTEFTLTISDLECADAATYYCQSNYGSDIRDYGHTFGGGTEVVVKGDPVAPTVLIFPP
- IC50 (pY1235-MET): 1.2 nM
- reactivity with MET epitope phosphorylated only at Y1234 (pY1234-MET): no cross-reactivity; also recorded: undetectable reactivity
- reactivity with Y1235D-MET (tyrosine 1235 replaced by aspartic acid) [2]: no cross-reactivity; also recorded: undetectable cross-reactivity
- cross-reactivity with cytoplasmic domain of RON [3]: no cross-reactivity
